# Laboratory results taken from patent US9433624B2, “Methods and compositions for the treatment of metabolic disorders” (BIOMARIN PHARMACEUTICAL INC., priority 2003, dated 2016).
# Like-named read-outs stand apart in the source and are kept apart here.
# Columns and labels:
# [1] = system: humans with elevated blood levels of phenylalanine (>600 μmol/L); experiment: Open label single ascending oral dose study of 6R-BH4, blood Phe before and 24 hours after each dose; format: in vivo
# Excerpt: (§1) Criteria for inclusion in the study included (1) baseline blood Phe levels of >600 μmol/L, (2) age of at least 8 years. Criteria for exclusion from the study included (1) pregnancy or breastfeeding, (2) concurrent diseases or conditions that require medication or treatment, (3) concurrent treatment with any drug known to inhibit folate synthesis, and (4) treatment with any investigational drug within 30 days. Each of the patients also was identified as having a mutation in the phenylalanine hydroxylase (PAH) gene. Study subjects underwent baseline assessments, including medical history with assessment of phenylketonuria (PKU) or hyperphenylalaninemia (HPA) related signs and symptoms, physical examinations, vital signs, serum amino acid (i.e., phenylalanine, tyrosine, and tryptophan) blood levels, and routine laboratory tests (chemistry, hematology, and urinalysis) before inclusion in the study.
# Within a maximum of 4 weeks following the completion of baseline assessments, eligible subjects began the first stage of the study. Single ascending doses of 10 mg/kg, 20 mg/kg and 40 mg/kg of 6R-BH4 were administered orally, with a washout period of at least 7 days between each dose, and subjects were monitored 24 hours after each dose. Subjects underwent a safety assessment and blood amino acid (i.e, phenylalanine, tyrosine, and tryptophan) level measurements before and 24 hours after each 6R-BH4 dose. Blood pressure was measured 30 minutes and 1 hour after each dose. Safety assessments included physical examinations, vital signs, serial assessment of PKU or HPA related signs and symptoms, recording of adverse events, and monitoring of changes in laboratory parameters (chemistry, hematology, and urinalysis). Subjects were instructed to continue their usual diet without any modification, and to record daily intake of food and beverages throughout the study.
# [2] = system: humans with elevated blood levels of phenylalanine (>600 μmol/L); experiment: Multiple dose study (7-day loading test), 6R-BH4 daily for 7 days, blood Phe and tyrosine; format: in vivo
# Excerpt: as §1
# After the first stage of the study was completed, subjects entered the second stage of the study, during which they received 10 mg/kg of 6R-BH4 daily in an oral dosage form, for a total of 7 days. After a washout period of at least 7 days, each subject received 20 mg/kg of 6R-BH4 daily for a total of 7 days. During the second stage of the study, subjects were monitored before dosing, at 24 and 72 hours after first dose, and on the 7th day of dosing at each of the two dose levels. Monitoring included a safety assessment as described above, measurement of serum blood amino acid (i.e, phenylalanine, tyrosine, and tryptophan) levels and evaluation of phenylalanine and tyrosine oral intake. Subjects were instructed to continue their usual diet without any modification, and to record daily intake of food and beverages throughout the study.
# Of those 14 patients, 10 (71%) responded favorably to 10 mg/kg/day. […] The individual blood Phe responses to multiple doses of 10 mg/kg BH4 are shown in 11 adults (FIG. 17) and 9 children (FIG. 19). The individual blood Phe responses to multiple doses of 20 mg/kg BH4 are shown in 11 adults (FIG. 18) and in 9 children (FIG. 20).
# [3] = Schircks dihydrochloride salt, oral tablets; cited from earlier work
# [4] = room temperature; cited from earlier work
# [5] = Storage stability of the polymorph form of BH4×2HCl, quality checked by HPLC; format: physicochemical; conditions: minigrip bag, 40° C., 75% relative humidity
# Method: The polymorph forms of BH4 described in the Moser Applications are a very stable crystalline form of the drug. The polymorph form can be easily filtered off, dried and ground to particle sizes desired for pharmaceutical formulations. These outstanding properties renders this polymorph form especially feasible for pharmaceutical application. The stability of the polymorph form of BH4 was determined after the BH4×2HCl (the polymorph form) had been stored for 8 months in a minigrip bag at 40° C. and 75% relative humidity. Quality was checked in different intervals throughout the 8 month period by HPLC.
# [6] = for hygroscopicity / water adsorbed (content): dihydrochloride; for water adsorbed (content): released on heating at 10° C./minute
smiles,measurement,setting,value
"C[C@H](O)[C@H](O)[C@H]1CNc2nc(N)[nH]c(=O)c2N1 [6R-BH4, (6R)-5,6,7,8-tetrahydrobiopterin]",blood Phe decline from baseline,[1]; single oral dose 10 mg/kg,10%±0.26%
same,blood Phe mean decline from baseline,[1]; single oral dose 20 mg/kg,17%±0.28%
same,blood Phe mean decline from baseline,[1]; single oral dose 40 mg/kg,27%±0.25%
same,responders to 20 mg/kg who also responded to the lower dose (30% or greater reduction in blood Phe),"[2]; 10 mg/kg/day, 10 of the 14 responders",71%
same,patients with sustained decrease in blood Phe concentration (responsive = decline of 30%),"[2]; 20 mg/kg daily, 14/20 patients",70 % of the patients
same,"increase in blood tyrosine from baseline, some patients","[2]; 10 and 20 mg/kg daily, some but not all patients",> 80%
same,half-life,[3],approximately 3.5 hours
same,shelf-life,[4],< 8 h
"C[C@H](O)[C@H](O)[C@H]1CNc2nc(N)[nH]c(=O)c2N1.Cl.Cl [BH4×2HCl, (6R)-L-erythro-tetrahydrobiopterin dihydrochloride]",HPLC [% area],[5]; 0 months (at the beginning),98.4 % area
same,HPLC [% area],[5]; after 1 month,98.3 % area
same,HPLC [% area],[5]; after 1 week,99.4 % area
same,HPLC [% area],[5]; after 3 months,99.1 % area
same,HPLC [% area],[5]; after 8 months,98.1 % area
"C[C@H](O)[C@H](O)[C@H]1CNc2nc(N)[nH]c(=O)c2N1.Cl.Cl [Form E, (6R)-L-erythro-tetrahydrobiopterin dihydrochloride]",hygroscopicity,[6],non-hygroscopic
"C[C@H](O)[C@H](O)[C@H]1CNc2nc(N)[nH]c(=O)c2N1.Cl.Cl [Hydrate form C, (6R)-L-erythro-tetrahydrobiopterin dihydrochloride]",hygroscopicity,[6]; hydrate form C,slightly hygroscopic
"C[C@H](O)[C@H](O)[C@H]1CNc2nc(N)[nH]c(=O)c2N1.Cl.Cl [Polymorph A, (6R)-L-erythro-tetrahydrobiopterin dihydrochloride]",hygroscopicity,[6],slightly hygroscopic
same,water adsorbed (content),[6],about 3 percent by weight
same,phase equilibration test of suspensions: form after filtration and air drying,"[6]; tetrahydrofuran or tertiary-butyl methyl ether, five days and 18 hours respectively, under nitrogen, room temperature",unchanged polymorph form A
"C[C@H](O)[C@H](O)[C@H]1CNc2nc(N)[nH]c(=O)c2N1.Cl.Cl [Polymorph B, (6R)-L-erythro-tetrahydrobiopterin dihydrochloride]",hygroscopicity,[6],slightly hygroscopic
"C[C@H](O)[C@H](O)[C@H]1CNc2nc(N)[nH]c(=O)c2N1.Cl.Cl [Polymorph F, (6R)-L-erythro-tetrahydrobiopterin dihydrochloride]",hygroscopicity,[6],slightly hygroscopic
same,water adsorbed (content),[6],about 3 percent by weight
"C[C@H](O)[C@H](O)[C@H]1CNc2nc(N)[nH]c(=O)c2N1.Cl.Cl [Polymorph K, (6R)-L-erythro-tetrahydrobiopterin dihydrochloride]",hygroscopicity,[6],slightly hygroscopic
same,water adsorbed (content),[6],about 2.0 percent by weight
"C[C@H](O)[C@H](O)[C@H]1CNc2nc(N)[nH]c(=O)c2N1.Cl.Cl [hydrate D, (6R)-L-erythro-tetrahydrobiopterin dihydrochloride]",hygroscopicity,[6]; hydrate form D,slightly hygroscopic
"C[C@H](O)[C@H](O)[C@H]1CNc2nc(N)[nH]c(=O)c2N1.Cl.Cl [polymorph J, (6R)-L-erythro-tetrahydrobiopterin dihydrochloride]",hygroscopicity,[6],slightly hygroscopic
